From patent publication US5444070A, “Phenyl substituted heterocyclic compounds” (NeuroSearch A/S, priority 1992, dated 1995)

Columns and labels:
[1] = system: abnormal stereotyped behaviour; assay: abnormal stereotyped behaviour; type: in vivo, rat; conditions: at every relevant dosing level tested
Text: Backward locomotion may occasionally be observed.
+=only stereotyped sniffing
++=stereotyped sniffing and episodic licking
+++=Continuous licking and/or biting gnawing

[2] = system: reuptake of dopamine in synaptosomes of rat forebrain; assay: inhibition of dopamine reuptake in synaptosomes of rat forebrain; type: biochemical; conditions: 3H-dopamine 1×10^-9 M, 10 min at 37° C., male Wistar rat forebrain synaptosomes; read-out: Dopamine reuptake inhibiting activity (IC50)
Description: Fresh whole forebrain (at 0°-4° C.) from male Wistar rats (150-200 g) is homogenized in a glass homogenizer with a teflon pestle in 20×volumes 0.32M sucrose. The homogenate is centrifuged at 1000×g (~2900 rpm) for 10 min. The pellet is discarded and the supernatant is used for uptake assays.
A Krebs Buffer (119 mM NaCl, 24 mM NaHCO3, 2.1 mM KCl, 1.2 mM KH2 PO4, 1.8 mM CaCl2, 2 mM MgSO4,7H2 O, 12 mM glucose) is equilibrated with an atmosphere of 96% O2 : 4% CO2 for at least 60 min at 37° C. To 5 ml Krebs-buffer 100 μl of the radioactivity is added (3H-dopamine 1×10^-9 M final concentration) and 100 μl test substance solution and 200 μl of tissue suspension. The samples are thoroughly mixed and incubated 10 min at 37° C. followed by 2 min at 0° C. After incubation the samples are poured directly onto Whatman GF/C glass fibre filters under suction and immediately washed with 2×5 ml ice-cold 0.9% saline (NaCl) buffer. To the filter is added 3 ml of scintillation fluid, and the amount of radioactivity on the filters is determined by conventional liquid scintillation counting.

SMILES: COC(=O)[C@@H]1[C@@H](c2ccc(F)cc2)C[C@@H]2CC[C@H]1N2C [trans isomer of Win 35,428, (1R,2R,3S)-2-carbomethoxy-3-(4-fluorophenyl)tropane, reference compound]
- side effects: abnormal stereotyped behaviour [1]: essentially or totally devoid of side effects

SMILES: CN1[C@H]2CC[C@@H]1[C@H](c1nc(-c3ccccc3)no1)[C@@H](c1ccc3ccccc3c1)C2 [(1R,2R,3S)-2-(3-phenyl-1,2,4-oxadiazol-5-yl)-3-(2-naphthyl)-tropane]
- IC50 [2]: 540 nM

SMILES: Cc1ccc([C@H]2C[C@@H]3CC[C@H]([C@@H]2c2nc(-c4ccccc4)no2)N3C)cc1 [(1R,2R,3S)-2-(3-phenyl-1,2,4-oxadiazol-5-yl)-3-(4-methylphenyl)-tropane]
- IC50 [2]: 960 nM

SMILES: CN1[C@H]2CC[C@@H]1[C@H](c1nc(-c3ccccc3)no1)[C@@H](c1ccc(Cl)cc1)C2 [(1R,2R,3S)-2-(3-phenyl-1,2,4-oxadiazol-5-yl)-3-(4-chlorophenyl)-tropane]
- IC50 [2]: 330 nM
